According to article PMC9653166 (Journal of medicinal chemistry, 2022):
“And” between values parts separate entries of the source, which are not always exact repeats. Equal entries are not always repeated. “Also recorded” adds a separate entry of the source. Blank lines part the entries; values can stand above or below the molecule they belong to.

What was measured:
[1] = biological target: T1, Sirt2 (Homo sapiens, UniProt Q8IXJ6); test: Coupled enzymatic deacetylation assay, Sirt2 with α-tubulin-acK25 peptide; type: biochemical; settings: for Effect on Sirt2 activity (in words): coupled assay, 10 and 100 μM compound; for Sirt2 activation (α-tubulin-acK25 deacetylation): 100 μM compound
T1 sequence (Q8IXJ6 43-356): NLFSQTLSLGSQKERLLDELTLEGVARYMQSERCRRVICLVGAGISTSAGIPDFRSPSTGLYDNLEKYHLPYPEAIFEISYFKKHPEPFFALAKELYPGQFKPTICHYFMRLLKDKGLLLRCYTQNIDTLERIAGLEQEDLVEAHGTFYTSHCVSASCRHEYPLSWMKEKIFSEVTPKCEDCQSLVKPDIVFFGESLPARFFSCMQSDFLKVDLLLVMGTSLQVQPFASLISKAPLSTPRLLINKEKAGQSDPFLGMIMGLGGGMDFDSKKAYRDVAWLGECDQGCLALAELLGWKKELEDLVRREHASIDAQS

[2] = test system: Sirt3; settings: cited from earlier work
[3] = biological target: T2, Sirt3 (Homo sapiens, UniProt Q9NTG7); test: Coupled enzymatic deacetylation assay, Sirt3 with ACS2-acK642 peptide; type: biochemical; settings: for Sirt3 activity: 100 μM compound; for Effect on Sirt3 activity (in words): coupled assay, ACS2 peptide, 10 and 100 μM compound
T2 sequence (Q9NTG7 114-380): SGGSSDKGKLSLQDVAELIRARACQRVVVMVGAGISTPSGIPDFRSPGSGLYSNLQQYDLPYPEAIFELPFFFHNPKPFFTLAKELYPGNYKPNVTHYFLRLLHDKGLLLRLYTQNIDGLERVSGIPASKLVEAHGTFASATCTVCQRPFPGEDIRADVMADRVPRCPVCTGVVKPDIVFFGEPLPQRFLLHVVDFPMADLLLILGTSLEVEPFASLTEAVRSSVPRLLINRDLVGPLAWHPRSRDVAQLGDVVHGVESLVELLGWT

[4] = biological target: T3, Sirt3 (Homo sapiens, UniProt Q9NTG7); test: Cellular SIRT3 deacetylase activity assay; type: cell-based; settings: MDA-MB-231 cells, 50 and 100 μM, 3 h
T3 sequence (Q9NTG7 1-399): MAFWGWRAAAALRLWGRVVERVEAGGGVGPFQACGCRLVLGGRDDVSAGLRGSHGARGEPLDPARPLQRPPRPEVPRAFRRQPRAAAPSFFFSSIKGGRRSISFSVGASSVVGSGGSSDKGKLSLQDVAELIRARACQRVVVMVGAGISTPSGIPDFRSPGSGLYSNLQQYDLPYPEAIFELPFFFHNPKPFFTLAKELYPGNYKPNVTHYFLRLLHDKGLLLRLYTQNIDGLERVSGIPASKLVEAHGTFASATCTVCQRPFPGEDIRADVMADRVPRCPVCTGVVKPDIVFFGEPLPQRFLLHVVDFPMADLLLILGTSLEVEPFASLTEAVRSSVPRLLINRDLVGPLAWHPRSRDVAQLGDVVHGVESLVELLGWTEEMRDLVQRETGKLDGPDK

[5] = test system: GDH acetylation; test: GDH immunoprecipitation and Lys acetylation Western blot, MDA-MB-231 cells; type: cell-based, human; settings: 50 μM
[6] = test system: MnSOD-Lys68 acetylation; test: MnSOD-Lys68 acetylation Western blot in MDA-MB-231 cells; type: cell-based, human
[7] = biological target: T4, Sirt5 (Homo sapiens, UniProt Q9NXA8); test: Coupled enzymatic desuccinylation assay, Sirt5 with CPS1-succK537 peptide; type: biochemical; settings: for Effect on Sirt5 activity (in words): coupled assay, 10 and 100 μM compound
T4 sequence (Q9NXA8 34-302): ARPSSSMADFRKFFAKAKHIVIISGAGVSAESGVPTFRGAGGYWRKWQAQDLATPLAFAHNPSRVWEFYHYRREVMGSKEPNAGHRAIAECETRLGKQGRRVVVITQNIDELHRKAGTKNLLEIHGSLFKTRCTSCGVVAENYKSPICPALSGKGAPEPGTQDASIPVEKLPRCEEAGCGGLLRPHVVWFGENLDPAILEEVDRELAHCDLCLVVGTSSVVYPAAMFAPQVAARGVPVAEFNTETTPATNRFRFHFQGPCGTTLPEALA

[8] = test system: GDH; test: GDH activity assay in MDA-MB-231 cell lysates; type: cell-based, human; settings: wild-type MDA-MB-231 cells, 50 μM, 4 or 24 h
[9] = test system: GOT1 acetylation; test: GOT1 acetylation Western blot in pancreatic cancer cell lines; type: cell-based
[10] = test system: glutaminase (GLS); test: GLS activity assay in MDA-MB-231 cell lysates; type: cell-based, human; settings: MDA-MB-231 cells, 50 μM, 4 and 24 h
[11] = test system: MDA-MB-231 cells; test: Ammonia level assay, MDA-MB-231 cells; type: cell-based, human; settings: 50 μM, 4 and 24 h
[12] = biological target: T5, Sirt5 (Homo sapiens, UniProt Q9NXA8); settings: cited from earlier work
T5 sequence (Q9NXA8 37-310): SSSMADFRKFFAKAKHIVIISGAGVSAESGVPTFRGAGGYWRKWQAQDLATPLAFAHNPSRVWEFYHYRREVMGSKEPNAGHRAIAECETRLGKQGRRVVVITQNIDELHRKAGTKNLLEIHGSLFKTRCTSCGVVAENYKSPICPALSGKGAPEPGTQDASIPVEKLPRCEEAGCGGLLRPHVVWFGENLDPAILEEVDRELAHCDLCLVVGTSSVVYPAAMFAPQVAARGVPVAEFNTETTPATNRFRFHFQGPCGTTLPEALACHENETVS

[13] = biological target: T6, Sirt1 (Homo sapiens, UniProt Q96EB6); test: Coupled enzymatic deacetylation assay, Sirt1 with p53-acK381 peptide; type: biochemical; settings: 10 and 100 μM compound
T6 sequence (Q96EB6 1-747): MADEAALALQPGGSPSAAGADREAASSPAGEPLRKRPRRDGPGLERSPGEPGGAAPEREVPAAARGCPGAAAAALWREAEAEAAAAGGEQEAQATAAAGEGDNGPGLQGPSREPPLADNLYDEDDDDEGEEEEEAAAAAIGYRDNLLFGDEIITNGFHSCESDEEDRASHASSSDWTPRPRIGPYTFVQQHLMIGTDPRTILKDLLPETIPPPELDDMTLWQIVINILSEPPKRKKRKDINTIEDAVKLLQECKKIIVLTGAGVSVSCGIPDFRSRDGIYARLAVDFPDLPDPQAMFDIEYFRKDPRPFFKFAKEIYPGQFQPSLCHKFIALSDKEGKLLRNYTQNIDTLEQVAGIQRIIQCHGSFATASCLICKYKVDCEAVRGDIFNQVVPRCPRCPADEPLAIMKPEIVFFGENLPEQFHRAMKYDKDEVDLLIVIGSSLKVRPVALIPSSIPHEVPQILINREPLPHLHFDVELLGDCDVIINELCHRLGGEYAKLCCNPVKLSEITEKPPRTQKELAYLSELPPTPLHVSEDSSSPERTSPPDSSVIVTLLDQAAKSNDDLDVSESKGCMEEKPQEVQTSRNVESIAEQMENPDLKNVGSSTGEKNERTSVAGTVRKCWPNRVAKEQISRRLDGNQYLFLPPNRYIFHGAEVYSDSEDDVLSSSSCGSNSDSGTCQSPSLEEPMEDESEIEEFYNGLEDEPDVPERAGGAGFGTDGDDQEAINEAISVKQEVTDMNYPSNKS

[14] = biological target: T7, Sirt4 (Homo sapiens, UniProt Q9Y6E7); test: Sirt4 activity test; type: biochemical; settings: 100 μM compound
T7 sequence (Q9Y6E7 29-314): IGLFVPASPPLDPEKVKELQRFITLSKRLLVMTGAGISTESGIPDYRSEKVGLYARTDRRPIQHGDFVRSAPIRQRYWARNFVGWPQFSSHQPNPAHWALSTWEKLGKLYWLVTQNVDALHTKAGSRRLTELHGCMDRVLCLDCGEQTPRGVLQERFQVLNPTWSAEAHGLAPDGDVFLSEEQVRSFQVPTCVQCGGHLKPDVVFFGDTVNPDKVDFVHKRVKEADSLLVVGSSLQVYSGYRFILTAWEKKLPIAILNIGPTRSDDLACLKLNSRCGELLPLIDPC

[15] = biological target: Sirt6 (Homo sapiens, UniProt Q8N6T7); test: Sirt6 activity test; type: biochemical; settings: 100 μM compound
Sirt6, sequence (Q8N6T7 whole entry): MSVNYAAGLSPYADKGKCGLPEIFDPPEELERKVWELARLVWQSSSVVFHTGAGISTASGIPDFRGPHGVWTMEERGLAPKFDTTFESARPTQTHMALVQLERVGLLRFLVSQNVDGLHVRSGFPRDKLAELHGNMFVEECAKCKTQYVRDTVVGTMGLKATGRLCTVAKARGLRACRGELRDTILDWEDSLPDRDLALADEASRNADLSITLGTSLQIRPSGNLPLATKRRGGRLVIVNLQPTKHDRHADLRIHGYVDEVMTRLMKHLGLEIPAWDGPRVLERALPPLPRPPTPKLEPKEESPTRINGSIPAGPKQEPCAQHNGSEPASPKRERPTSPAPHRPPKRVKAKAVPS

[16] = biological target: T2, Sirt3; test: MS-based deacetylation assay, Sirt3 with ACS2 peptide; type: biochemical; settings: 100 μM compound
[17] = biological target: T2, Sirt3; test: Sirt3-dependent deacetylation of a panel of eleven acetylated peptides; type: biochemical
[18] = biological target: T2, Sirt3; test: Microscale thermophoresis binding to Sirt3
[19] = biological target: T4, Sirt5; test: Microscale thermophoresis binding to Sirt5
[20] = test system: mouse embryonic fibroblasts (MEFs); test: Mitochondrial mass by FACS; type: cell-based; settings: 25 μM, 24 h
[21] = test system: Sirt1-3; settings: FdL substrate; cited from earlier work
[22] = biological target: T5, Sirt5; test: PDC deacylation assay: PDHA1 desuccinylation by recombinant Sirt5; type: biochemical; settings: 100 μM compound, PDHA1 from porcine heart tissue

- Effect on Sirt2 activity (in words) [1]: smaller effects
Compound: CCOC(=O)C1=CN(C(=O)c2cc(OC)c(OC)c(OC)c2)C=C(C(=O)OCC)C1c1ccoc1 [Compound 41, Diethyl 4-(Furan-3-yl)-1-(3,4,5-trimethoxybenzoyl)-1,4-dihydropyridine-3,5-dicarboxylate]

Compound: C=CCc1ccc(O)c(-c2ccc(O)c(CC=C)c2)c1 [honokiol]
- Sirt3 activation [2]: weakly activate Sirt3

- EC50 [3]: 100 to 200 µM
- Sirt3 activity [3]: over 300%
Compound: CCOC(=O)C1=CN(C(=O)c2ccccc2)C=C(C(=O)OCC)C1c1ccccc1 [Compound 11]
- FdL deacetylation (Sirt3) activity in cell lysates [4]: significant increase in FdL deacetylation activity
- GDH overall Lys acetylation [5]: decreased acetylation levels
- MnSOD-Lys68 acetylation ([6]; MDA-MB-231 cells, 50 μM): decrease in MnSOD-Lys68 acetylation
- MnSOD-Lys68 acetylation ([6]; Sirt3 silenced MDA-MB-231 cells, 16 h): did not decrease MnSOD-Lys68 acetylation

- Effect on Sirt2 activity (in words) [1]: smaller effects
Compound: CCOC(=O)C1=CN(C(=O)c2cc(OC)c(OC)c(OC)c2)C=C(C(=O)OCC)C1c1ccco1 [Compound 40, Diethyl 4-(Furan-2-yl)-1-(3,4,5-trimethoxybenzoyl)-1,4-dihydropyridine-3,5-dicarboxylate]

- Sirt5 activation (CPS1-succK537 desuccinylation) ([7]; 10 μM compound): 1.2- to 1.5 fold
- Effect on Sirt5 activity (in words) [7]: specific Sirt5 activation
Compound: CCOC(=O)C1=CN(C(=O)c2ccccc2)C=C(C(=O)OCC)C1c1cccc(OC)c1 [Compound 19]
- GDH activity in cell lysates [8]: decreased GDH activity
- GOT1 acetylation ([9]; S2–013 and Capan1 cell lines, 20 μM, 24 h): decrease GOT1 acetylation
- Effect on GOT1 acetylation ([9]; SIRT5 knockout KPC and KPCS cell lines): negligible
- GLS activity in cell lysates [10]: decreased GLS activity
- Ammonia accumulation [11]: blocked ammonia accumulation
- In vitro Sirt5 deacetylase activity [12]: increase in vitro Sirt5 deacetylase activity

- Sirt2 activation (α-tubulin-acK25 deacetylation) [1]: 2 fold
- Sirt5 activation (CPS1-succK537 desuccinylation) ([7]; 100 μM compound): 3- to 3.5 fold and 3.5 fold
Compound: CCOC(=O)C1=CN(C(=O)c2cc(OC)c(OC)c(OC)c2)C=C(C(=O)OCC)C1c1cccc(N)c1 [Compound 38, Diethyl 4-(3-Aminophenyl)-1-(3,4,5-trimethoxybenzoyl)-1,4-dihydropyridine-3,5-dicarboxylate]

Compound: CCOC(=O)C1=CN(C(=O)c2cc(OC)c(OC)c(OC)c2)C=C(C(=O)OCC)C1c1ccccc1 [Compound 31, Diethyl 4-Phenyl-1-(3,4,5-trimethoxybenzoyl)-1,4-dihydropyridine-3,5-dicarboxylate]
- Sirt3 activity [3]: more than 400%
- Effect on Sirt1 activity (in words) [13]: no significant effects
- Effect on Sirt2 activity (in words) [1]: no significant effects
- Effect on Sirt5 activity (in words) [7]: no significant effects
- Effect on Sirt4 [14]: partial Sirt4 inhibition
- Effect on Sirt6 [15]: no significant effects
- Sirt3 activation in MS-based assay [16]: activated Sirt3-dependent deacetylation of the ACS2 peptide
- Stimulation of Sirt3-dependent deacetylation of all panel substrates ([17]; 10 μM compound): weakly
- Stimulation of Sirt3-dependent deacetylation of all panel substrates ([17]; 100 μM compound): significantly
- Kd [18]: 32 ± 7 µM
- Kd [19]: 83 ± 19 µM
- FdL deacetylation (Sirt3) activity in cell lysates [4]: significant increase in FdL deacetylation activity
- GDH overall Lys acetylation [5]: decreased acetylation levels

- Effect on Sirt3 activity (in words) [3]: comparable to the parent compound
- Sirt2 activation (α-tubulin-acK25 deacetylation) [1]: less than 1.5 fold
Compound: CCOC(=O)C1=CN(C(=O)c2ccc3ccccc3c2)C=C(C(=O)OCC)C1c1ccccc1 [Compound 22]

Compound: CCOC(=O)C1=CN(C(=O)c2ccccc2)C=C(C(=O)OCC)C1c1cccc(C)c1 [Compound 16]
- GDH activity in cell lysates [8]: no significant changes in GDH activity
- GLS activity in cell lysates [10]: no such effects
- Ammonia accumulation [11]: no such effects

Compound: CCOC(=O)C1=CN(Cc2ccccc2)C=C(C(=O)OCC)C1c1cnc2ccccc2c1 [Compound 10]
- Effect on Sirt3 activity (in words) [3]: Sirt3 activation; also recorded: comparable to the parent compound
- Effect on mitochondrial mass ([20]; Sirt3 knock-out MEFs): no significant compound effect
- Increase of mitochondrial mass ([20]; wild-type MEFs): about 2.5 fold

- Sirt2 activation (α-tubulin-acK25 deacetylation) [1]: less than 1.5 fold
- Effect on Sirt2 activity (in words) [1]: weak Sirt2 activation
Compound: CCOC(=O)C1=CN(Cc2ccccc2)C=C(C(=O)OCC)C1c1ccco1 [Compound 5]

- Effect on Sirt3 activity (in words) [3]: Sirt3 activation
Compound: CCOC(=O)C1=CN(Cc2ccccc2)C=C(C(=O)OCC)C1c1ccccc1 [Compound 1]
- Sirt1-3 activation in the FdL assay [21]: Sirt1-3 activating properties

- Sirt5 activation (CPS1-succK537 desuccinylation) ([7]; 10 μM compound): 1.2- to 1.5 fold
- Sirt5-dependent desuccinylation of PDHA1 [22]: clearly enhanced
Compound: CCOC(=O)C1=CN(C(=O)c2ccccc2)C=C(C(=O)OCC)C1c1cccc(Cl)c1 [Compound 13]
